Laboratory results from PubChem BioAssay (NCI).
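At the GI50, growth is halved. TGI is the concentration that stops growth completely.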

Tests used:
Test in all cases: NCI anticancer screen, dose series, 384-well format
[1] = test system: SN12C renal
[2] = test system: HOP-62 NSCLC
[3] = test system: HOP-92 NSCLC
[4] = test system: OVCAR-4 ovarian
[5] = test system: COLO 205 colon
[6] = test system: HCT-15 colon
[7] = test system: HS 578T breast
[8] = test system: TK-10 renal
[9] = test system: NCI/ADR-RES ovarian
[10] = test system: IGROV1 ovarian
[11] = test system: NCI-H522 lung
[12] = test system: MOLT-4 leukemia
[13] = test system: NCI-H322M lung
[14] = test system: OVCAR-3 ovarian
[15] = test system: EKVX NSCLC
[16] = test system: DU-145 prostate
[17] = test system: MDA-MB-468 breast
[18] = test system: HCC-2998 colon
[19] = test system: NCI-H226 lung
[20] = test system: K-562 leukemia
[21] = test system: 786-0 renal
[22] = test system: RXF 393 renal
[23] = test system: OVCAR-8 ovarian
[24] = test system: SNB-19 CNS
[25] = test system: SK-MEL-2 melanoma
[26] = test system: HCT-116 colon
[27] = test system: UO-31 renal
[28] = test system: SK-MEL-28 melanoma
[29] = test system: SW-620 colon
[30] = test system: MDA-MB-231 breast
[31] = test system: LOX IMVI melanoma
[32] = test system: BT-549 breast
[33] = test system: ACHN renal
[34] = test system: NCI-H23 lung
[35] = test system: MDA-MB-435 melanoma
[36] = test system: SK-MEL-5 melanoma
[37] = test system: SF-539 CNS
[38] = test system: SF-295 CNS
[39] = test system: MALME-3M melanoma
[40] = test system: OVCAR-5 ovarian
[41] = test system: HL-60(TB) leukemia
[42] = test system: CAKI-1 renal
[43] = test system: SF-268 CNS
[44] = test system: NCI-H460 NSCLC
[45] = test system: M14 melanoma
[46] = test system: SNB-75 CNS
[47] = test system: PC-3 prostate

With `c1ccc2c(NCCCN3CCN(CCCNc4c5ccccc5nc5ccccc45)CC3)c3ccccc3nc2c1` the GI50 [1] was 0.0816 µM, the TGI [1] was 0.348 µM and the GI50 [2] was 0.0964 µM. For the same molecule, the TGI [2] was 0.463 µM, the GI50 [3] was 0.425 µM and the TGI [3] was 2.45 µM. The GI50 [4] was 0.446 µM, the TGI [4] was 1.22 µM and the GI50 [5] was 1.28 µM. For the same molecule, the TGI [5] was 3.06 µM, the GI50 [6] was 2.58 µM and the TGI [6] was 8.97 µM. It also gave a GI50 [7] of 0.174 µM, a TGI [7] of 1.17 µM and a GI50 [8] of 0.605 µM. For the same molecule, the TGI [8] was 3.16 µM, the GI50 [9] was 5.28 µM and the TGI [9] was over 100 µM. The GI50 [10] was 0.228 µM, the TGI [10] was 1.43 µM and the GI50 [11] was 0.0647 µM. The TGI [11] was 0.26 µM, the GI50 [12] was 0.0232 µM and the TGI [12] was 0.0509 µM. It also gave a GI50 [13] of 0.277 µM, a TGI [13] of 1.38 µM and a GI50 [14] of 0.651 µM. For the same molecule, the TGI [14] was 2.12 µM, the GI50 [15] was 1.33 µM and the TGI [15] was 3.95 µM. The GI50 [16] was 0.683 µM, the TGI [16] was 3.49 µM and the GI50 [17] was 0.305 µM. The TGI [17] was 0.67 µM, the GI50 [18] was 0.391 µM and the TGI [18] was 1.51 µM. The GI50 [19] was 0.161 µM, the TGI [19] was 1.19 µM and the GI50 [20] was 1.11 µM. It also gave a TGI [20] of 3.6 µM, a GI50 [21] of 0.204 µM and a TGI [21] of 1.47 µM. For the same molecule, the GI50 [22] was 0.421 µM, the TGI [22] was 1.46 µM and the GI50 [23] was 0.296 µM. The TGI [23] was 1.56 µM, the GI50 [24] was 0.433 µM and the TGI [24] was 6.93 µM. The GI50 [25] was 0.261 µM, the TGI [25] was 0.434 µM and the GI50 [26] was 0.267 µM. For the same molecule, the TGI [26] was 1.28 µM, the GI50 [27] was 1.78 µM and the TGI [27] was 4.05 µM. It also gave a GI50 [28] of 1.82 µM, a TGI [28] of 3.24 µM and a GI50 [29] of 0.452 µM. It also gave a TGI [29] of 2.35 µM, a GI50 [30] of 0.506 µM and a TGI [30] of 2.06 µM. The GI50 [31] was 0.665 µM, the TGI [31] was 1.86 µM and the GI50 [32] was 1.2 µM. For the same molecule, the TGI [32] was 2.57 µM, the GI50 [33] was 0.345 µM and the TGI [33] was 2.24 µM. For the same molecule, the GI50 [34] was 0.327 µM, the TGI [34] was 1.34 µM and the GI50 [35] was 1.26 µM. The TGI [35] was 2.54 µM, the GI50 [36] was 1.01 µM and the TGI [36] was 2.24 µM. For the same molecule, the GI50 [37] was 0.159 µM, the TGI [37] was 1.23 µM and the GI50 [38] was 1.03 µM. The TGI [38] was 3.49 µM, the GI50 [39] was 0.702 µM and the TGI [39] was 1.88 µM. For the same molecule, the GI50 [40] was 0.378 µM, the TGI [40] was 2.46 µM and the GI50 [41] was 0.108 µM. For the same molecule, the TGI [41] was 0.243 µM, the GI50 [42] was 0.929 µM and the TGI [42] was 4.69 µM. For the same molecule, the GI50 [43] was 0.301 µM, the TGI [43] was 1.19 µM and the GI50 [44] was 0.17 µM. For the same molecule, the TGI [44] was 0.384 µM, the GI50 [45] was 1.32 µM and the TGI [45] was 2.63 µM. The GI50 [46] was 0.361 µM, the TGI [46] was 1.41 µM and the GI50 [47] was 1.39 µM. For the same molecule, the TGI [47] was 3.75 µM.

Work on `CN1CCN(c2ccc(-c3cccc(CN4CCOCC4)c3)cc2NC(=O)c2c[nH]c(=O)cc2C(F)(F)F)CC1` yielded a GI50 [1] of over 62.1 µM, a TGI [1] of over 100 µM and a GI50 [2] of 21 µM. The TGI [2] was over 65.3 µM, the GI50 [3] was 24.9 µM and the TGI [3] was over 77.4 µM. For the same molecule, the GI50 [4] was 50.4 µM, the TGI [4] was over 100 µM and the GI50 [5] was 8.59 µM. It also gave a TGI [5] of over 89 µM, a GI50 [6] of 12.3 µM and a TGI [6] of 44.8 µM. The GI50 [7] was 12.2 µM, the TGI [7] was 34.4 µM and the GI50 [8] was 30.5 µM. For the same molecule, the TGI [8] was over 90.4 µM, the GI50 [9] was over 58.1 µM and the TGI [9] was over 100 µM. It also gave a GI50 [10] of 31.3 µM, a TGI [10] of 98.2 µM and a GI50 [11] of 22.8 µM. It also gave a TGI [11] of 69.6 µM, a GI50 [12] of 5.86 µM and a TGI [12] of 11.5 µM. It also gave a GI50 [13] of 53.3 µM, a TGI [13] of over 100 µM and a GI50 [14] of 18.9 µM. The TGI [14] was over 74.4 µM, the GI50 [15] was 33.5 µM and the TGI [15] was over 100 µM. It also gave a GI50 [16] of 19.5 µM, a TGI [16] of over 100 µM and a GI50 [17] of 12 µM. For the same molecule, the TGI [17] was 28.9 µM, the GI50 [18] was 29.9 µM and the TGI [18] was over 63.9 µM. For the same molecule, the GI50 [19] was 52.5 µM, the TGI [19] was over 100 µM and the GI50 [20] was 12.3 µM. The TGI [20] was 25.3 µM, the GI50 [21] was 10.4 µM and the TGI [21] was 34.2 µM. For the same molecule, the GI50 [22] was 11.4 µM, the TGI [22] was 33.3 µM and the GI50 [23] was 18.3 µM. For the same molecule, the TGI [23] was over 100 µM, the GI50 [24] was 46.3 µM and the TGI [24] was over 100 µM. For the same molecule, the GI50 [25] was 20.9 µM, the TGI [25] was 43.3 µM and the GI50 [26] was 12.7 µM. The TGI [26] was over 78.2 µM, the GI50 [27] was 14.5 µM and the TGI [27] was over 100 µM. It also gave a GI50 [28] of 17 µM, a TGI [28] of 31 µM and a GI50 [29] of 11.7 µM. For the same molecule, the TGI [29] was over 45.2 µM, the GI50 [30] was 25.6 µM and the TGI [30] was over 94 µM. For the same molecule, the GI50 [31] was 9.13 µM, the TGI [31] was 23 µM and the GI50 [32] was 26.5 µM. The TGI [32] was over 68.5 µM, the GI50 [33] was 37.9 µM and the TGI [33] was over 100 µM. The GI50 [34] was 17.3 µM, the TGI [34] was over 86.1 µM and the GI50 [35] was 31.7 µM. It also gave a TGI [35] of over 100 µM, a GI50 [36] of 13.6 µM and a TGI [36] of 26.6 µM. The GI50 [37] was 12.3 µM, the TGI [37] was 28.7 µM and the GI50 [38] was 17.8 µM. The TGI [38] was 56.8 µM, the GI50 [39] was 14.7 µM and the TGI [39] was 28.1 µM. The GI50 [40] was 40.9 µM, the TGI [40] was over 100 µM and the GI50 [41] was 8.87 µM. The TGI [41] was 20.1 µM, the GI50 [42] was 25 µM and the TGI [42] was over 100 µM. The GI50 [43] was 14.7 µM, the TGI [43] was over 29.6 µM and the GI50 [44] was 8.79 µM. For the same molecule, the TGI [44] was 23.5 µM, the GI50 [45] was 16 µM and the TGI [45] was 29.8 µM. It also gave a GI50 [46] of 22.2 µM, a TGI [46] of over 68.3 µM and a GI50 [47] of 27 µM. It also gave a TGI [47] of over 94.6 µM.
